The results in this text go back to ChEMBL document CHEMBL1141067, “Dipyridyl amines: potent metabotropic glutamate subtype 5 receptor antagonists” (Bioorg Med Chem Lett, 2005).

Series [1] deals with T1, Metabotropic glutamate receptor 5 (Homo sapiens, UniProt P41594). As to the kind of experiment: In vitro potency against calcium flux in Ltk cells expressing human recombinant metabotropic glutamate receptor 5 using fluorescence detection. It is filed as cell-based. For orientation: A change in cytosolic calcium serves as a functional read-out for many receptors and channels.
T1 sequence (P41594 whole entry): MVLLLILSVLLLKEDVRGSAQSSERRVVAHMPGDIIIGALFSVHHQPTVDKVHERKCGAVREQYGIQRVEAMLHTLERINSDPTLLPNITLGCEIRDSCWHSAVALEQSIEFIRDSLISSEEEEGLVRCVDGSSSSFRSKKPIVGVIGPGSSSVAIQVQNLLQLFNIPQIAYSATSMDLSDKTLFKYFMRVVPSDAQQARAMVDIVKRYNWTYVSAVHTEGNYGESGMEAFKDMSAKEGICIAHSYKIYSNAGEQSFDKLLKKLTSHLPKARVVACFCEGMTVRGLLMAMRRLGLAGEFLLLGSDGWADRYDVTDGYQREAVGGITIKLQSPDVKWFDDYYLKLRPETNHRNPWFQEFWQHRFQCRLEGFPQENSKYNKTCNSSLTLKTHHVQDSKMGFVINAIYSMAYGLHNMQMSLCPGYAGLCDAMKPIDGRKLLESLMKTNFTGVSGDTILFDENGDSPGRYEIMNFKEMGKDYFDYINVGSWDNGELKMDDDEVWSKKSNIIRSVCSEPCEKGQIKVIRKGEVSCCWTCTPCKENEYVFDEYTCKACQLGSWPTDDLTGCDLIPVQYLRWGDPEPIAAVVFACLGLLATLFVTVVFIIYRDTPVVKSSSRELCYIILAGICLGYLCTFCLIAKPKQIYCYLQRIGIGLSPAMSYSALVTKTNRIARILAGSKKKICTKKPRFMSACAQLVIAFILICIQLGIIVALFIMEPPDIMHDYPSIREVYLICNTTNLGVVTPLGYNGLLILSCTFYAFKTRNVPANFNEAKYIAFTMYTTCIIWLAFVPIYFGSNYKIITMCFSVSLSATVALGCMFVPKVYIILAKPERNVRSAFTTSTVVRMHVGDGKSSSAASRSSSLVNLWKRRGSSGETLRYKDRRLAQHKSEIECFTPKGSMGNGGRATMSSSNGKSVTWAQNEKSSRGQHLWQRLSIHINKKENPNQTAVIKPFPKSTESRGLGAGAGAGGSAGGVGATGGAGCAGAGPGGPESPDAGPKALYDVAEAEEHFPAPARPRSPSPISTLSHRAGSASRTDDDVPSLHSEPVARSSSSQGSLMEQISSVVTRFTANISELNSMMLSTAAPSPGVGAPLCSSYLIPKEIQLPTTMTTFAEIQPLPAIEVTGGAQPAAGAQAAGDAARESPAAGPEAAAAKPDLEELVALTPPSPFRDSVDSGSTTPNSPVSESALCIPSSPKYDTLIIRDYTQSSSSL

A short description of series [2]: Bioavailability (10 mg/kg, p.o.) in Sprague Dawley rats. It is filed as ADME, organism-based. The settings on record: rat, in vivo, po.
Series [3] is described as follows: Half-life (2 mg/kg, i.v.) was determined in Sprague-Dawley rats. It is filed as ADME, organism-based. The conditions noted are these: rat, in vivo, iv.
A short description of series [4]: Plasma clearance (2 mg/kg, i.v.) was determined in Sprague-Dawley rats. The format is ADME, organism-based. The conditions noted are these: rat, iv, read-out: Clp.
Series [5] in a line: Volume of distribution (2 mg/kg, iv.) was determined in Sprague Dawley rats; not determined. It is filed as ADME, organism-based. The settings on record: rat, in vivo.
The subject of the next series is Rattus norvegicus. Briefly: In vivo receptor occupancy was determined in rats following intravenous dosage at 10 mg/kg. It is filed as functional.
The target of series [6] is T1, Metabotropic glutamate receptor 5. As to the kind of experiment: In vitro potency against calcium flux in Ltk cells expressing human recombinant metabotropic glutamate receptor 5 using fluorescence detection; not active at 10 uM. The format is cell-based.
A short description of series [7]: Volume of distribution (2 mg/kg, iv.) was determined in Sprague Dawley rats. The conditions noted are these: rat, in vivo. It is filed as ADME, organism-based.
Series [8] can be described thus: Bioavailability (10 mg/kg, p.o.) was determined in Sprague Dawley rats. It is filed as ADME, organism-based. The conditions noted are these: rat, in vivo, po.

For `CCOc1cc(-c2cccnc2)cnc1Nc1cccc(C)n1`, in series [1], the IC50 is 12 nM. The compound further yielded a bioavailability in [2] of 38%. In series [3], this compound showed a half-life of 1 h. For the same compound, in [4], the clearance worked out at 50 mL/min/kg.

For the compound `CCOc1cc(-c2cncnc2)cnc1Nc1cccc(C)n1`, the IC50 in series [1] was 36 nM. Besides, the bioavailability in series [2] amounted to 67%. Moreover, in [3], the half-life is 0.6 h. In series [5], the Vd worked out at 2.3 L/kg. For the same compound, the Receptor occupancy in the series on Rattus norvegicus was found to be 79%. Besides, the clearance in series [4] came out at 79 mL/min/kg.

Consider `Cc1cccc(Nc2ncccc2C)n1`, for which the IC50 entry in series [6] is on record as “Not Active”.

Take `CCOc1cccnc1Nc1ccccn1`: the 50% inhibitory concentration (IC50) in series [1] was found to be 138 nM. The same compound returned a bioavailability in series [2] of 16%. Moreover, the half-life in series [3] was 0.8 h. For the same compound, the Vd in series [7] amounted to 2.9 L/kg. Moreover, in series [4], the clearance amounted to 78 mL/min/kg.

In the case of `CCOc1cccnc1Nc1cccc(C(F)(F)F)n1`, in [1], the IC50 came to 1900 nM.

On to `CCOc1cccnc1Nc1cccc(OC)n1`, for which the IC50 in series [1] worked out at 556 nM.

With `CCOc1cccnc1Nc1cccc(C(=O)OC)n1`, the IC50 in series [1] was determined as 6200 nM.

In the case of `Cc1cccc(Nc2ncccc2O)n1`, the IC50 result in [6] is recorded as “Not Active”.

`COc1cccnc1Nc1cccc(C)n1`: the IC50 in series [1] was 458 nM.

Regarding `CCOc1ncccc1Nc1cccc(C)n1`, the IC50 result in series [6] is listed as “Not Active”.

`Cc1cccc(Nc2ncccc2C#N)n1`: the IC50 entry in [6] is “Not Active”.

With `CCOc1cc(-c2cnccc2C)cnc1Nc1cccc(C)n1`, the IC50 in series [1] came out at 45 nM. Moreover, in [2], the bioavailability amounted to 8%. This compound showed a half-life in series [3] of 0.7 h. Further, the distribution volume (Vd) in series [5] amounted to 4.7 L/kg. Moreover, in [4], the clearance amounted to 105 mL/min/kg.

In the case of `Cc1cccc(Nc2ncccc2OCc2ccccc2)n1`, in series [1], the IC50 was determined as 870 nM.

`CCCOc1cccnc1Nc1cccc(C)n1`: the half-maximal inhibitory concentration (IC50) in [1] is 1600 nM.

In the case of `Cc1cccc(Nc2ncccc2-c2ccccc2)n1`, the IC50 result in series [6] is given as “Not Active”.

Consider `CCOc1cc(C#N)cnc1Nc1cccc(C)n1`, for which, in [1], the IC50 was 46 nM. In series [2], this compound showed a bioavailability of 13%. Further, in series [3], the half-life was 1.6 h. In series [7], this compound had a Vd of 7 L/kg. In addition, the clearance in series [4] came to 90 mL/min/kg.

As for `CCOc1cc(-c2ccc(C)cc2)cnc1Nc1cccc(C)n1`, in series [1], the IC50 amounted to 513 nM.

With `CCOc1cc(-c2cccnc2C#N)cnc1Nc1cccc(C)n1`, the IC50 in series [1] amounted to 80 nM.

Take `CCOc1cc(C)cnc1Nc1cccc(C)n1`: the IC50 in series [1] stood at 119 nM.

On to `CCOc1ccc(C)nc1Nc1cccc(C)n1`, for which the IC50 result in series [6] is listed as “Not Active”.

On to `CCOc1cc(-c2ccccc2C#N)cnc1Nc1cccc(C)n1`, for which the IC50 in series [1] worked out at 37 nM.

`CSc1cccnc1Nc1cccc(C)n1`: the IC50 in series [1] stood at 790 nM.

As for `COC(=O)c1cccnc1Nc1cccc(C)n1`, in series [6], the IC50 entry is reported as “Not Active”.

`CCOc1cc(-c2ccsn2)cnc1Nc1cccc(C)n1`: in series [1], the IC50 is 243 nM.

With `CCOc1ccccc1Nc1cccc(C)n1`, the IC50 entry in series [6] is recorded as “Not Active”.

On to `CCOc1cc(Cl)cnc1Nc1cccc(C)n1`, for which, in [1], the IC50 stood at 17 nM.

As to `CCNc1cccnc1Nc1cccc(C)n1`, the concentration for half-maximal inhibition (IC50) in series [1] was found to be 3000 nM.

For `CCCc1cccnc1Nc1cccc(C)n1`, the IC50 in series [1] worked out at 394 nM. This compound also had a half-life in series [3] of 1 h. Besides, the clearance in series [4] amounted to 320 mL/min/kg.

Turning to `CCOc1c(C)ccnc1Nc1cccc(C)n1`, the IC50 in [1] amounted to 2700 nM.

In the case of `Cc1cccc(Nc2ncccc2OC(C)C)n1`, the IC50 in [1] worked out at 1000 nM.

On to `CCOc1cc(-c2ccccc2)cnc1Nc1cccc(C)n1`, for which the IC50 in series [1] was 267 nM.

Consider `CCOc1cc(Oc2cccnc2)cnc1Nc1cccc(C)n1`, for which the IC50 in [1] was 18 nM. Moreover, the half-life in [3] was 1.2 h. In [5], this compound came in with a Vd of 3.7 L/kg. The Receptor occupancy in the series on Rattus norvegicus is given as 82%. For the same compound, the clearance in series [4] stood at 52 mL/min/kg.

Turning to `CCOc1cc(-c2cccc(F)c2)cnc1Nc1cccc(C)n1`, in series [1], the IC50 was determined as 126 nM. In series [2], this compound displayed a bioavailability of 19%. In series [3], this compound gave a half-life of 0.5 h. For the same compound, in [7], the Vd was 3 L/kg. In addition, the clearance in series [4] worked out at 93 mL/min/kg.

For `CCOc1cc(Br)cnc1Nc1cccc(C)n1`, the IC50 in series [1] worked out at 47 nM.

Regarding `Cc1cccc(Nc2ncccc2-c2cccnc2)n1`, the IC50 result in [6] is on record as “Not Active”.

`CCOc1cc(-c2ccccn2)cnc1Nc1cccc(C)n1`: in series [1], the IC50 is 193 nM. In [2], this compound came in with a bioavailability of 0%. In series [3], this compound had a half-life of 1 h. For the same compound, the Vd in series [7] stood at 6.1 L/kg. Further, the clearance in series [4] was 124 mL/min/kg.

Take `CCOc1nccnc1Nc1cccc(C)n1`: the IC50 in series [1] stood at 497 nM. Further, in series [3], the half-life was 1 h. The clearance in series [4] is 102 mL/min/kg.

For `CCOc1cccnc1Nc1cccc(C)n1`, in series [1], the IC50 was found to be 40 nM. In series [8], this compound showed a bioavailability of 11%. The same compound gave a half-life in series [3] of 2.1 h. Moreover, the Vd in series [7] amounted to 1.2 L/kg. For the same compound, the clearance in series [4] was determined as 16 mL/min/kg.

`COc1cccc(F)c1Nc1cccc(C)n1`: the IC50 result in series [6] is “Not Active”.

As usually defined, the IC50 is the concentration that gives 50% inhibition. The term bioavailability denotes dose-corrected exposure relative to a reference, in per cent. As usually defined, the half-life is the time in which the quantity being followed falls by half. What is called Vd is a proportionality between amount in the body and measured concentration, not a real space. Read a low Vd as little distribution into tissue.
